Assay results taken from ChEMBL document CHEMBL5727796, “Substituted purine derivative” (2020).

Target: T1, Toll-like receptor 7 (Homo sapiens, UniProt Q9NYK1)
T1 sequence (Q9NYK1 whole entry): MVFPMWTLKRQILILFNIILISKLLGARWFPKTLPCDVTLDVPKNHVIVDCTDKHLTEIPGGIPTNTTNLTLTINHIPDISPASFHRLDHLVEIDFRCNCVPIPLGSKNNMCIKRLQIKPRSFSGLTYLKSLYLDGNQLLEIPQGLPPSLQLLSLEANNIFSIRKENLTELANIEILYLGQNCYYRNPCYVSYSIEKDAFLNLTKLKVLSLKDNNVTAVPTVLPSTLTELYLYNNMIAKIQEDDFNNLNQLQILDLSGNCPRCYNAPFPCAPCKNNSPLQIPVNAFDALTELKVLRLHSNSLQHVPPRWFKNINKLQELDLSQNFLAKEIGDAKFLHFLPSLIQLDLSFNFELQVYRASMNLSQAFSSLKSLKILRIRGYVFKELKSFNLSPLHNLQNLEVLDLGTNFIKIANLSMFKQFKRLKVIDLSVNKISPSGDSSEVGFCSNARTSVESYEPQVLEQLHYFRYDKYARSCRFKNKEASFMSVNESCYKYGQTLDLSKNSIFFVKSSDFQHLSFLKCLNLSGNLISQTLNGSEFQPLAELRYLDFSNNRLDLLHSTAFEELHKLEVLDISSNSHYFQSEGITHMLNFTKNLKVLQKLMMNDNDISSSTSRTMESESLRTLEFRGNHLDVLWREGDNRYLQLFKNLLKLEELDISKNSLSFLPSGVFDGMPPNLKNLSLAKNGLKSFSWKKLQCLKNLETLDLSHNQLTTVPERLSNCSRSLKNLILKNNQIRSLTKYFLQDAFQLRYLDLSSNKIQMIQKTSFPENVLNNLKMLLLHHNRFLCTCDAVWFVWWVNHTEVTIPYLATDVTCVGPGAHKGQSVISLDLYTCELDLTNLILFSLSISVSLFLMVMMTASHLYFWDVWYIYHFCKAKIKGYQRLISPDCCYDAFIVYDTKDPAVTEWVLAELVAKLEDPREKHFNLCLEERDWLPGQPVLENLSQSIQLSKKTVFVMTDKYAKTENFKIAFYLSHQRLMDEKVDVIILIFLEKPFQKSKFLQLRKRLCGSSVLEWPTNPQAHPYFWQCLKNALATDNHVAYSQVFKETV
Experiment: Inhibition of the Activation Assay: As human TLR7 expressing cell line, HEK293 cell line was bought from IMGENEX Corporation (TLR7/NF-ηB/SEAPorter™ HEK293 cell), which is human embryonic kidney cell line and stably expresses full-length human TLR7 gene and secreted alkaline phosphatase (SEAP) reporter gene under the transcriptional control of an NE-ηB response element. The TLR7/NF-ηB/SEAPorter™ HEK293 cell was cultivated with DMEM containing 10% fetal bovine serum (FBS) and 10 μg/mL blasticidin S at 37° C. in the presence of 5% CO2.

Structure (SMILES) | IC50
CCCCCc1nc(N)c2nc(-c3cncc(F)c3)n(Cc3ccccc3)c2n1 | 9500 nM
COc1nc(C)c2nc(-c3cncc(F)c3)n(Cc3ccc(C4CCN(C)C4)cc3)c2n1 (stereo not given) | 84 nM
CCOc1nc(C)c2nc(-c3cncc(F)c3)n(Cc3ccc(C4CN5CCC4CC5)cc3)c2n1 (stereo not given) | 7 nM
CCCCOc1nc(N)c2nc(-c3ccc(OCCCN4CCOCC4)cc3)n(Cc3ccccc3)c2n1 | 4100 nM
CCCCOc1nc(N)c2nc(-c3ccc(CN4CCOCC4)cc3)n(Cc3ccccc3)c2n1 | 8200 nM
CCOc1nc(N)c2nc(-c3cncc(F)c3)n(Cc3ccc(CN4CCN5CCC4C5)cc3)c2n1 (stereo not given) | 51 nM
CCOc1nc(N)c2nc(-c3cncc(F)c3)n(Cc3ccc(OCCN4CCCC4)nc3)c2n1 | 620 nM
CCOc1nc(N)c2nc(-c3cncc(F)c3)n(Cc3ccccc3OC(F)F)c2n1 | 2170 nM
CCOc1nc(N)c2nc(-c3cncc(F)c3)n(Cc3ccc(OCCN(C)C)cc3)c2n1 | 99 nM
CCOc1nc(N)c2nc(-c3cncc(F)c3)n(Cc3ccc(OCCN(C)C)nc3)c2n1 | 810 nM
CCOc1nc(C)c2nc(-c3cncc(F)c3)n(Cc3ccc(CN4CCN5CCC4C5)cc3)c2n1 (stereo not given) | 28 nM
CCOc1nc(N)c2nc(-c3cncc(F)c3)n(Cc3ccc(F)c(OCCN4CCCC4)c3)c2n1 | 620 nM
CCOc1nc(N)c2nc(-c3cncc(F)c3)n(Cc3ccc(OCCCN(C)C)cc3)c2n1 | 89 nM
COCCOc1nc(N)c2nc(-c3cncc(C)c3)n(Cc3ccccc3)c2n1 | 9100 nM
CCOc1nc(N)c2nc(-c3cncc(F)c3)n(Cc3cccc(OCCN(C)C)n3)c2n1 | 1430 nM
CCCCOc1nc(N)c2nc(-c3cccc(CN4CCOCC4)c3)n(Cc3ccccc3)c2n1 | 13900 nM
CCOc1nc(N)c2nc(-c3cncc(F)c3)n(Cc3ccnc(OCCN(C)C)c3)c2n1 | 1800 nM
CCOc1nc(N)c2nc(-c3cncc(F)c3)n(Cc3ccc(C4CCN(C)C4)cc3)c2n1 (stereo not given) | 20 nM

Structure (SMILES) | IC50
CCOc1nc(N)c2nc(-c3cncc(F)c3)n(Cc3cccc(OCCN(C)C)c3)c2n1 | 77 nM
CCCCOc1nc(C)c2nc(-c3cncc(F)c3)n(Cc3ccc(CN(C)C)cc3)c2n1 | 200 nM
CCOc1nc(N)c2nc(-c3cncc(F)c3)n(Cc3cc(CN(C)C)no3)c2n1 | 1300 nM
COc1nc(C)c2nc(-c3cncc(F)c3)n(Cc3ccc(C4=CCN(C(=O)OC(C)(C)C)CC4)cc3F)c2n1 | 291 nM
COc1nc(C)c2nc(-c3cnccn3)n(Cc3ccc(C4CN5CCC4CC5)cc3F)c2n1 (stereo not given) | 43 nM
CCOc1nc(N)c2nc(-c3cncc(F)c3)n(Cc3cccc(OCCCN(C)C)c3)c2n1 | 60 nM
CCOc1nc(N)c2nc(-c3cncc(F)c3)n(Cc3ccc(OCCN4CCN(C)CC4)nc3)c2n1 | 280 nM
CCOc1nc(N)c2nc(-c3cncc(F)c3)n(Cc3cc(OCCN(C)C)ccn3)c2n1 | 5800 nM
CCOc1nc(C)c2nc(-c3cncc(F)c3)n(Cc3ccc(CN4C[C@@H]5C[C@H]4CN5CC)nc3)c2n1 | 230 nM
CCOc1nc(N)c2nc(-c3cncc(F)c3)n(Cc3ccc(OCCN4CCN(C)CC4)cc3)c2n1 | 67 nM
CCOc1nc(N)c2nc(-c3cncc(F)c3)n(Cc3ccc(F)c(OCCN(C)C)c3)c2n1 | 420 nM
COc1nc(C)c2nc(-c3cncc(F)c3)n(Cc3ccc(CC4CCN(C(=O)OC(C)(C)C)CC4)cc3F)c2n1 | 355 nM
CCOc1nc(C)c2nc(-c3cncc(F)c3)n(Cc3ccc(CN4CCN5CC[C@H]4C5)cc3)c2n1 | 63 nM
CCOc1nc(C)c2nc(-c3cncc(F)c3)n(Cc3cnn(C)c3)c2n1 | 2680 nM
CCOc1nc(N)c2nc(-c3cncc(F)c3)n(Cc3ccc4c(c3)CN(C(=O)CN(C)C)C4)c2n1 | 460 nM
COc1nc(C)c2nc(-c3cncc(F)c3)n(Cc3ccc([C@H]4CN5CCC4CC5)cc3)c2n1 | 3 nM
COc1nc(C)c2nc(-c3cccnc3)n(Cc3ccc(O[C@@H]4CN5CCC4CC5)cc3F)c2n1 | 70 nM
